# In patent US9107940B2, “Compositions and methods for treating and preventing skeletal muscle deficiencies” (The Regents of the University of Michigan, priority 2007, dated 2015):
# Tests used:
# [1] = system: mdx lumbrical (LMB) muscles; experiment: Isometric contraction protocol (20 contractions) inducing force deficit in isolated lumbrical muscles in vitro; design: species or system mouse
# Source text: Specific-pathogen-free male mdx mice (C57BL/10ScSn-mdx stock #001801) 2-3 months of age and wild type (WT) C57BL/10 mice 2-5 months of age were obtained from the Jackson Laboratory (Bar Harbor, Me.). Mice were housed in a specific-pathogen-free barrier facility. All experimental procedures were in accordance with the Guide for the Care and Use of Laboratory Animals [DHHS Publication No. 85-23 (NIH), Revised 1985, Office of Science and Health Reports, Bethesda, Md. 20892].
# Mice were anesthetized with an intraperitoneal injection of Avertin (tribromoethanol 400 mg/kg). Supplemental doses of Avertin were administered as required to keep the mouse unresponsive to tactile stimuli. The front paws of the mouse were severed and the LMB muscles dissected free from the second digit. The LMB muscles were selected for their extremely small size that ensured all fibres were accessible to externally applied compounds. Based on physical dimensions, LMB muscle mass was estimated to be approximately 0.7 mg. Dissections were performed in a chilled bathing solution, composition in mM: 137 NaCl, 11.9 NaHCO3, 5.0 KCl, 1.8 CaCl2, 0.5 MgCl2, 0.4 NaH2PO4. The isolated LMB muscle was mounted horizontally in a custom-fabricated chamber with the distal tendon attached to a force transducer (Aurora Scientific, Inc., modified Model 400A) and the proximal tendon attached to a servomotor (Aurora Scientific, Inc., Model 318B) by ties composed of 10-0 monofilament nylon suture. Bath temperature was maintained at 25° C. and the chamber was perfused continuously with Tyrode solution (composition in mM: 121 NaCl, 24 NaHCO3, 5.0 KCl, 1.8 CaCl2, 0.5 MgCl2, 0.4 NaH2PO4) maintained at pH 7.3 by bubbling with a 95%/5% O2/CO2 mixture.
# Muscles were stimulated electrically by current passed between two platinum electrodes. […] Optimum length (Lo) of the muscle was determined by adjusting its length until maximum twitch force was attained. […]
# Data are presented as a mean value±SE. […] When ANOVA was used and significance detected, the Student-Newman-Keuls post hoc comparison was used to assess pairwise differences.
# [2] = system: WT muscles; conditions: P188 1 mM or streptomycin 200 μM
# Method: LMB muscles from WT mice, termed WT muscles, were divided into two groups. One group was exposed to normal Tyrode solution and the other group to a calcium-free Tyrode solution. […] For all treatments, muscles were allowed to incubate in the chamber for 15 minutes prior to commencement of the contraction protocol. […] For calcium-free experiments, CaCl2 was omitted from the Tyrode solution and MgCl2 was increased to 2.3 mM to maintain the concentration of divalent ions.
structure (smiles),measurement,setting,value
[H]/N=C(/N)N[C@H]1[C@H](O)[C@@H](O)[C@H](O[C@@H]2O[C@@H](C)[C@](O)(C=O)[C@H]2O[C@@H]2O[C@@H](CO)[C@H](O)[C@@H](O)[C@@H]2NC)[C@@H](N/C(N)=N\[H])[C@@H]1O [streptomycin],influence on absolute Po,"[1]; mdx LMB muscles, P188 1 mM, streptomycin 200 μM",did not influence
same,force generated at the end of the contraction protocol (post-protocol normalized Po),"[1]; mdx LMB muscles, P188 1 mM, streptomycin 200 μM in Tyrode, 15 min incubation, untreated mdx 69% of Po",84 % of Po
same,contraction-induced force deficit (effect in words),[1]; whole mdx skeletal muscle,equally effective in reducing the contraction-induced force deficit
same,toxicity to the muscle,[2],not toxic
